Data on one compound can be found in patent EP1592418B1, “USE OF ENDOCANNABINOID-LIKE COMPOUNDS FOR TREATING CNS DEGENERATIVE DISORDERS” (Research & Innovation S.p.A., priority 2003, dated 2004).

Series [1] can be described thus: Solubility (physico-chemical properties). It counts as physicochemical.
The test system of the next series is Jurkat cells. The series can be described thus: Evaluation of cellular viability by MTT assay. The format is cell-based, human. The note with it: 10 µM, incubated 18-24 hr, MTT, absorbance 570 nm. The method, then: Jurkat, an acute T-lymphoblastic leukemia cell line generated from a person, have been used. Cell culture have been cultured in RPMI-1640 culture medium containing 10% FBS.
Jurkat cells were cultured at 1x10^5 cells/ml in RPMI 1640 medium supplemented with 10% fetal bovine serum (FBS), 2mM L-glutamine and 100 U/ml penicillin + 100 ug/ml streptomycin.
To detect drug effect in vitro, MTT [3-(4,5-dimethylthiazol-2-yl)-2,5-diphenyltetrazolium bromide] assay was used as described (Carmichael J et al., 1987 Cancer Res. 47, 936-42). Briefly, cells were seeded in triplicate on 96-well culture plates at a density of 20000 cells/well. The drugs were added in order to have the final concentration of 10 µM (1 µl of a solution of 10mM in DMSO) and incubated for 18-24 hr. Then MTT (0.5 mg/ml) was added to each well, and plates were incubated for an additional 1 to 3 hr in the dark at 37 °C. After this time the MTT solution was aspirated from the wells and 0.1 ml of DMSO was added. The plates were allowed to stand for 10 min, and then the absorbance was determined in a SpectraCount (Packard) microplate reader at 570 nm. The drug effect was determined by comparing absorbances of treated and untreated cells.
For orientation: Formazan colour is commonly taken as a measure of viable cells.

Series [2] deals with reverse passive Arthus reaction, mouse ear pinna. The experiment in a line: Reverse passive Arthus reaction (RPA) in the mouse ear pinna: oedema and Evans blue extravasation. The format is in vivo. The note with it: mouse ear. An excerpt: The Arthus model (RPA) is a model of immune-complex mediated tissue damage that involves the passive subcutaneous introduction of an antibody and the systemic administration of the corresponding antigen. This inflammatory model has been used to test the in vivo activity of the synthesised molecules.
The reverse passive Arthus reaction is induced, in the mouse ear pinna, by the subcutaneous injection of an excess of IgG anti human albumin followed by i.v. adiministration of the corresponding Ag (i.e. human albumin) together with Evans blue, 2 mg for each mouse, for the evaluation of extravasation.
(§1) The tested molecules were solubilised in DMSO, cremophor and PBS in a ratio of 1:1:18 and administered usually by intraperitonelly at the dosage of 10 mg/Kg 1 hour before the induction of anafilactic reaction. The animals were sacrificed 3 hours after the molecule administration.
The oedema and the extravasations are evaluated tree hours after the i.v. administration of the antigen. The oedema is evaluated as the increase of weight of lesioned ear area dissected by a 8 mm biopsy punch as compared to the contralateral unlesioned auricular tissues. The extravasation is measured determining the Evans blue density at 620 nm in the supernatants deriving from ear homogenates following centrifugation at 10000 x g for 20 min.

The nature of series [3]: Rectal temperature (central cannabinoid effect, hypothermia). The format is in vivo, mouse. Conditions: treated animals; Vehicle 0,1 ± 0,2. The method, then: as §1
TABLE 4. Rectal temperature in animals that have been treated with cannabinoids, endocannabinoids or molecules that are object of the present invention. Note a profound hypothermia induced by synthetic cannabinoid such as Win 55,212 or the endocannabinoid Anandamide while no alteration was induced by molecules that are object of the present invention.

Structures are written as SMILES.

For `CCCCCCCCCCCCCCCC(=O)NCCC(C)C` [Example 35, N-isopentyl-palmitoyl amide], the solubility in series [1] (organic solvent or mixture, in DMSO and in chloroform, read-out: solubility in organic solvents) was more than 10000 µg/mL. Further, in series [1] (water), the solubility in water entry is “scarcely soluble”. The “Growth inhibition (% of control)” value in the series on Jurkat cells is recorded as 29.2 % of control. For the same compound, in series [2] (10 mg/Kg i.p., Evans blue density at 620 nm in ear homogenate supernatant, Vehicle 0,90±0,06, Naïve 0,04±0,01), the Extravasation is listed as 0,58±0,09. Also, the “Oedema (mg)” value in series [2] (10 mg/Kg intraperitoneally 1 hour before induction, weight increase of 8 mm punch vs contralateral ear, three hours after antigen, Vehicle 49,8 ± 1,2, Naive 23,7 ± 1,2) is listed as 38,3 ± 1.8 mg. The “Riduction % (extravasation)” value in series [2] (reduction of extravasation versus Vehicle (0), 10 mg/Kg i.p.) came out at 35.6%. For the same compound, the “ΔT (°C) rectal temperature” value in series [3] is 0,3 ± 0,2 °C.

In general, solubility refers to how much of the substance goes into solution per volume.
